US11285218B2, “Degradation of bromodomain-containing protein 9 (BRD9) by conjugation of BRD9 inhibitors with E3 ligase ligand and methods of use” (Dana-Farber Cancer Institute, Inc., priority 2016, dated 2022)
pIC50: −log10 of the molar value.

Experiments:
[1] = target: T1, BRD9 (Homo sapiens, UniProt Q9H8M2); assay: BRD9-ligand displacement AlphaScreen; type: binding
T1 construct: A construct of human BRD9 covering residues 134-0245 in the pET28PP vector; made in house; host or cells: E. coli BL21 (DE3)
T1 sequence (Q9H8M2 134-245 limits assumed): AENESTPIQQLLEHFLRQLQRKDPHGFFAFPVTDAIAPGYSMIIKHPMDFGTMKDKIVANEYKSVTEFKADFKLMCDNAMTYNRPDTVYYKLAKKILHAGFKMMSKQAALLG
Protocol: BRD9 assays were performed with minimal modifications from the manufacturer's protocol (PerkinElmer, USA). All reagents were diluted in 50 mM HEPES, 150 mM NaCl, 0.1% w/v BSA, 0.01% w/v Tween20, pH 7.5. […] Plates were spun down at 150×g, and 100 nL of DMSO compound stock was added from pre-diluted plates by pin transfer using a Janus Workstation (PerkinElmer, USA). Under low light, a 2× suspension of Ni-coated Acceptor Beads and Streptavidin Donor Beads, was then added at 10 ul/well to a final concentration of 5 μg/ml by EL406 automated liquid handler (Biotek, USA).

[2] = target: T2, CRBN-DDB1 (Homo sapiens, UniProt Q96SW2); assay: CRBN-DDB1 ligand-displacement AlphaScreen; type: binding; conditions: for pIC50: purified CRBN-DDB1 ligand displacement
T2 construct: made in house; host or cells: Sf9 cells (Invitrogen)
T2 sequence (Q96SW2 whole entry): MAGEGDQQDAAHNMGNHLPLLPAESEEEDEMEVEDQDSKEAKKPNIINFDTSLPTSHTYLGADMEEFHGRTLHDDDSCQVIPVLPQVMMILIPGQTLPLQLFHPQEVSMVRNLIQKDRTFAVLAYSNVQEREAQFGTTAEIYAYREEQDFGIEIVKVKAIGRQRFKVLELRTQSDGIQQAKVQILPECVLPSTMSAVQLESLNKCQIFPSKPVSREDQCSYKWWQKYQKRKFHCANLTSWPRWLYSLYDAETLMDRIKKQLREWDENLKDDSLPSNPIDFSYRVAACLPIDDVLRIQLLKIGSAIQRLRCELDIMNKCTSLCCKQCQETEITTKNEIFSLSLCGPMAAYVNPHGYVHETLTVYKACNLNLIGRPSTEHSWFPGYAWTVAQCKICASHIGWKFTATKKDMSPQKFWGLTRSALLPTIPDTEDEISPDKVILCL
T2 sequence (Q16531 whole entry partner): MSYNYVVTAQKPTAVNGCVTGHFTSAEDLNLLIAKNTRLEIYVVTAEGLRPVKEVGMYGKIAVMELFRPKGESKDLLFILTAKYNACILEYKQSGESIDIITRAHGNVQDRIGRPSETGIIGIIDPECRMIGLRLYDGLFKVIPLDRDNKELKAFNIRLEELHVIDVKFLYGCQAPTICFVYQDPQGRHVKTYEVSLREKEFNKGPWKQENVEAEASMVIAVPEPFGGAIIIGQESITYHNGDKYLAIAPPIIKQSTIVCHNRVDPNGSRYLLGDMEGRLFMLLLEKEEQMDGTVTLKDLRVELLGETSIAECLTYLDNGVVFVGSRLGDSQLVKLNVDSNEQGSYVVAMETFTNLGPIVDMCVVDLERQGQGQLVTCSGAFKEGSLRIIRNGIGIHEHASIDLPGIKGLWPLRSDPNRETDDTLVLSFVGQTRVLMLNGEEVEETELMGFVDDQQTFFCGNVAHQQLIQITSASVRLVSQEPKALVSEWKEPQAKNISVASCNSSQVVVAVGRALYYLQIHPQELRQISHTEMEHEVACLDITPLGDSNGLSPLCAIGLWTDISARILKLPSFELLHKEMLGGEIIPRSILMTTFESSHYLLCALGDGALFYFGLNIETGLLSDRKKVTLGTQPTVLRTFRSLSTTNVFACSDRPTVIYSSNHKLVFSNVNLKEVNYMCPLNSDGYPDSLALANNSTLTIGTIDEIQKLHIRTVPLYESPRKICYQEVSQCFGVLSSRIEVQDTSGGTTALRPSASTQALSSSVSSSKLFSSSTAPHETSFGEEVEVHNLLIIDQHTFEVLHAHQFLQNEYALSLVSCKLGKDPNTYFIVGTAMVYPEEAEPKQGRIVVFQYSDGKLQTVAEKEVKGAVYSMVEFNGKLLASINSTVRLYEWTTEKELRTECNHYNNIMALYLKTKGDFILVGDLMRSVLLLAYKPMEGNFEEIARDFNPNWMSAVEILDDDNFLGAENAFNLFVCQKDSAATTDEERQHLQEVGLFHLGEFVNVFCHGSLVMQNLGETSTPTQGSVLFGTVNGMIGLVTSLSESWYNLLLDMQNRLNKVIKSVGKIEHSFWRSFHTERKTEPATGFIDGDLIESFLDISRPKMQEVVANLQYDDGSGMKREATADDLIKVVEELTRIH
Protocol: Following a 30 min incubation, 20 uL detection solution containing Streptavidin Donor Beads and Nickel Chelate AlphaLISA® Acceptor Beads diluted to 20 ng/uL in assay buffer was added to each well.

[3] = target: BRD9:CRBN-DDB1 protein complex (Homo sapiens, UniProt Q96SW2+Q9H8M2); assay: BRD9:CRBN-DDB1 dimerization assay (luminescence); conditions: for BRD9:CRB9-DDB1 AUC / BRD9:CRB9-DDB1 Cmax: luminescence detection of dimerization assay; for formation of the BRD9:CRBN-DDB1 protein complex: relative to unmodified thalidomide, in words
Chain of BRD9:CRBN-DDB1 protein complex (Q96SW2 whole entry, one chain of several): as the sequence (Q96SW2 whole entry) above
Chain of BRD9:CRBN-DDB1 protein complex (Q16531 whole entry partner, one chain of several): as the sequence (Q16531 whole entry partner) above
Protocol: To measure this activity, a homogenous luminescence assay was developed to report on compound-induced proximity of BRD9 and CRBN.
To detect CRBN-DDBI/BRD4 dimerization, we adapted bead-based AlphaScreen technology. […] Compounds were then pinned at 100 nL per well from DMSO stock. After 1 incubation at room temperature. Nickel Chelate AlphaLISA Acceptor and Glutathione AlphaLISA Donor beads (PerkinElmer) were diluted in assay buffer to 20 μg/mL and added at 20 μl per well.

[4] = target: BRD4(1) (Homo sapiens, UniProt O60885); assay: BRD4(1) ligand-displacement AlphaScreen; type: binding; parameters: substituting protein and biotin-probe components for BRD4(1) protein at 20 nM final; His tag (inferred from Ni-coated acceptor beads)
[5] = target: T3, BRD9 (Homo sapiens, UniProt Q9H8M2); assay: BRD9 immunoblot in MOLM-13; conditions: MOLM-13, 4 hour treatment, indicated concentrations; in words
T3 sequence (Q9H8M2 1-597): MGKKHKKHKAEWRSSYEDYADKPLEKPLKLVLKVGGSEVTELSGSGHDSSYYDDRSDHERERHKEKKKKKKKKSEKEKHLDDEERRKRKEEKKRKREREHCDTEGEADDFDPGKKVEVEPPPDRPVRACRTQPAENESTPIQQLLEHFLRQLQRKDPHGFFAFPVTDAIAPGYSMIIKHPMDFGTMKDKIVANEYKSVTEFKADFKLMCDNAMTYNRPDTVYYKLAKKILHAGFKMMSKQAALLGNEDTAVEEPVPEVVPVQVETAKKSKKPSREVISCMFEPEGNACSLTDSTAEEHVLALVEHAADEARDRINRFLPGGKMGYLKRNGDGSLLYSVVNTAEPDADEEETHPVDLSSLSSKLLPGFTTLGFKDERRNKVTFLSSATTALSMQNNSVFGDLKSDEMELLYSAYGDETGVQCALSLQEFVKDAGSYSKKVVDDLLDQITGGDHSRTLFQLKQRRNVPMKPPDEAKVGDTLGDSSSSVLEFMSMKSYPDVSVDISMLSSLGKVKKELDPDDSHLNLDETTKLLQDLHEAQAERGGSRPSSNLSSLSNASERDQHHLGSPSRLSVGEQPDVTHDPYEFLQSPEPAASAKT
Protocol: In additional experiments, cells were washed with PBS, before being lysed in RIPA buffer supplemented with 1×HALT™ protease inhibitor cocktail (Thermo Scientific) for 10 min on ice, followed by low-amplitude sonication for 10 seconds at 4° C. […] In soluble material was removed by centrifugation at 20,000×g for 20 min before protein content was quantified by BCA assay (Pierce). […] Blots were imaged using fluorescence-labeled secondary antibodies (LI-COR) on the OdysseyCLxImager (LI-COR).

[6] = target: T3, BRD9; assay: BRD9 degradation / cellular activity (Western blot, cell line not stated); conditions: cell line not given

| SMILES | pIC50 [1] | pIC50 [2] | BRD9:CRB9-DDB1 AUC [3] | BRD9:CRB9-DDB1 Cmax [3] [nM] | pIC50 [4] | BRD9 protein level (immunoblot) [5] | BRD9:CRBN-DDB1 dimerization, comparison in words [3] | BRD9 degradation / cellular potency, in words [6] | formation of the BRD9:CRBN-DDB1 protein complex [3] | CRBN-DDB1 affinity, in words ([2]; comparison of phthalimide linkages) |
| --- | --- | --- | --- | --- | --- | --- | --- | --- | --- | --- |
| COc1cc(-c2cn(C)c(=O)c3cc(C(=N)NC4CCS(=O)(=O)CC4)sc23)ccc1OCC(=O)NCCCCNC(=O)COc1cccc2c1C(=O)N(C1CCC(=O)NC1=O)C2=O (stereo not shown) [Compound I-1] | 7.87 | 7.31 | 44270 | 42.5 | 5.42 |  |  |  | significantly induce formation of the complex |  |
| COc1cc(-c2cn(C)c(=O)c3cc(C(=N)NC4CCS(=O)(=O)CC4)sc23)ccc1OCC(=O)NCCCCCCCCNC(=O)COc1cccc2c1C(=O)N(C1CCC(=O)NC1=O)C2=O (stereo not shown) [Compound I-2] | 7.72 | 7.36 | 71477 | 95.1 | 5.47 | Marked protein loss | improved dimerization relative to the short four-carbon linked compound I-1 |  | significantly induce formation of the complex |  |
| COc1cc(-c2cn(C)c(=O)c3cc(C(=N)NC4CCS(=O)(=O)CC4)sc23)ccc1OCC(=O)NCCCOCCOCCOCCCNC(=O)COc1cccc2c1C(=O)N(C1CCC(=O)NC1=O)C2=O (stereo not shown) [Compound I-3] | 7.44 | 7.31 | 50182 | 44.9 | 5.50 |  | reduced this activity |  | significantly induce formation of the complex |  |
| COc1cc(-c2cn(C)c(=O)c3cc(C(=N)NC4CCS(=O)(=O)CC4)sc23)ccc1OCC(=O)NCCCCCCCCNc1cccc2c1C(=O)N(C1CCC(=O)NC1=O)C2=O (stereo not shown) [Compound I-5] | 7.81 | 7.97 | 67227 | 37.4 | 5.81 | effectively downregulate BRD9 over a broad range of concentrations |  |  | significantly induce formation of the complex |  |
| COc1cc(-c2cn(C)c(=O)c3cc(C(=N)NC4CCS(=O)(=O)CC4)sc23)ccc1OCC(=O)N1CCC(C2CCN(C(=O)COc3cccc4c3C(=O)N(C3CCC(=O)NC3=O)C4=O)CC2)CC1 (stereo not shown) [Compound I-7] | 7.90 | 7.80 | 107794 | 54.0 | 5.82 |  | significant improvement | significant improvement | significantly induce formation of the complex |  |
| COc1cc(-c2cn(C)c(=O)c3cc(C(=N)NC4CCS(=O)(=O)CC4)sc23)ccc1OCC(=O)NCCCCCCOc1cccc2c1C(=O)N(C1CCC(=O)NC1=O)C2=O (stereo not shown) [Compound I-8] | 7.52 | 7.70 | 144813 | 111 | 5.15 | Marked protein loss | further improved dimerization relative to compound I-2 |  | significantly induce formation of the complex | slightly improved binding over acetamide ethers I-1 and I-2 |
| COc1cc(-c2cn(C)c(=O)c3cnccc23)cc(OC)c1CN(C)CC(=O)NCCCCCCNc1ccc2c(c1)C(=O)N(C1CCC(=O)NC1=O)C2=O (stereo not shown) [Compound I-12] | 7.25 | 8.07 | 60256 | 8.39 | < 4.30 |  |  |  | significantly induce formation of the complex |  |
| COc1cc(-c2cn(C)c(=O)c3cnccc23)cc(OC)c1CN(C)CC(=O)NCCOCCOCCOCC(=O)N[C@@H](C(=O)N1C[C@@H](O)C[C@@H]1C(=O)NCc1ccc(-c2scnc2C)cc1)C(C)(C)C [Compound I-23] | 7.36 |  |  |  | < 4.30 |  |  |  |  |  |
| COc1cc(-c2cn(C)c(=O)c3cnccc23)cc(OC)c1CN(C)CC(=O)NCCCCCCCCNC(=O)COc1cccc2c1C(=O)N(C1CCC(=O)NC1=O)C2=O (stereo not shown) [Compound I-24] | 7.32 | 7.83 | 58563 | 27.3 | < 4.30 |  |  |  | significantly induce formation of the complex |  |

Second part, led by results:

| pIC50 [1] | pIC50 [2] | BRD9:CRB9-DDB1 AUC [3] | BRD9:CRB9-DDB1 Cmax [3] [nM] | pIC50 [4] | BRD9 protein level (immunoblot) [5] | BRD9:CRBN-DDB1 dimerization, comparison in words [3] | BRD9 degradation / cellular potency, in words [6] | SMILES | formation of the BRD9:CRBN-DDB1 protein complex [3] | CRBN-DDB1 affinity, in words ([2]; comparison of phthalimide linkages) |
| --- | --- | --- | --- | --- | --- | --- | --- | --- | --- | --- |
| 7.08 | 8.08 | 139380 | 8.22 | < 4.30 |  |  |  | COc1cc(-c2cn(C)c(=O)c3cnccc23)cc(OC)c1CN(C)CC(=O)NCCCCCCCCNc1cccc2c1C(=O)N(C1CCC(=O)NC1=O)C2=O (stereo not shown) [Compound I-15] | significantly induce formation of the complex |  |
| 7.94 | 7.75 | 46614 | 33.7 | 5.95 |  | superior | superior | COc1cc(-c2cn(C)c(=O)c3cc(C(=N)NC4CCS(=O)(=O)CC4)sc23)ccc1OCC(=O)NCCCCCCCCNc1ccc2c(c1)C(=O)N(C1CCC(=O)NC1=O)C2=O (stereo not shown) [Compound I-9] | significantly induce formation of the complex |  |
